In PubChem BioAssay AID588482 (NMMLSC, 2011) one finds inhibition data, which are given here for 23 molecules.

One may read the inhibition as the drop in the measured response relative to a control, in per cent.

Calls of active or inactive are those of the source.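 The calls were made as follows: active = a percent response above zero, which rounds up to a positive score; inactive = the rest.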

Chain of Beta-adrenergic receptor kinase 1 (Homo sapiens) (P25098 whole entry, looked up): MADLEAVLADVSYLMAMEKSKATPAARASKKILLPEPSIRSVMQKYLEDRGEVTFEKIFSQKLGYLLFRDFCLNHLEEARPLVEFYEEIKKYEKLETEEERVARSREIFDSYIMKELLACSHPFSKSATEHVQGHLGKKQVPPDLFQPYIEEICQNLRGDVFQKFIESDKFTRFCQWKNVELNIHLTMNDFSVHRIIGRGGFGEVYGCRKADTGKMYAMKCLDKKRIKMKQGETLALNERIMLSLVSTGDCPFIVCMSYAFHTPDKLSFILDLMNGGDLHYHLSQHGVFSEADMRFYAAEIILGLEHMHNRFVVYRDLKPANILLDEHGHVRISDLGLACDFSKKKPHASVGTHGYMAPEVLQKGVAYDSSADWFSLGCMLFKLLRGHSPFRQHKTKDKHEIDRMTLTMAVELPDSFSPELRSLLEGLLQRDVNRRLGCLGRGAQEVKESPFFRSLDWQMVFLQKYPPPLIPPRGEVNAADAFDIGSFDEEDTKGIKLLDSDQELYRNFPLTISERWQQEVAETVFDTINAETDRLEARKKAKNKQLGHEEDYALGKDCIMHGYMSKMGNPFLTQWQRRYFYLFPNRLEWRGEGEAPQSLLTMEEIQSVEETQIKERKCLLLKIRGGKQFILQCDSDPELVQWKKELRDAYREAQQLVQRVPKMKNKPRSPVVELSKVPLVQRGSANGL

This assay has as its target Beta-adrenergic receptor kinase 1 (Homo sapiens) (UniProt P25098). Description: GRK2 kinase inhibitors, rhodopsin substrate, late-stage follow-up, orthogonal assay for GRK2 aptamer-displacement inhibitor project, biochemical, set 2 (AID 588482). Conditions: GRK2 rhodopsin phosphorylation, 32P incorporation, SDS-PAGE; at 200 µM; stronger effect = higher value.
In the case of `COC(=O)c1ccccc1NC(=O)CCS(=O)(=O)c1ccc(Br)s1`, the inhibition is -18.3% (inactive). Take `CCN(CC)c1ccc(NC(=O)CCS(=O)(=O)c2ccc(Br)cc2)c(C)c1`: the inhibition is 59.3%. Next, `COC(=O)c1ccc(NC(=O)CCS(=O)(=O)c2ccc(Br)cc2)cc1`: -71.8% (inactive); `O=C(CSc1nc2ccccc2c(=O)n1-c1ccccc1)NC(=O)CN1CCCC1=O`: -54% (inactive); `O=C(O)Cc1ccc(-n2cccc2)cc1`: 46.5%.

As for `COc1ccc(CCNC(=O)CCS(=O)(=O)c2ccc(Br)cc2)cc1OC`, the inhibition was -29.5% (inactive). Next, `NS(=O)(=O)c1ccc(CCNC(=O)CCS(=O)(=O)c2ccc(Br)cc2)cc1`: -15.8% (inactive); `Cc1ccc(CCNC(=O)CCS(=O)(=O)c2ccc(Br)cc2)cc1`: -30.2% (inactive). Next, `Cc1ccccc1NC(=O)CCS(=O)(=O)c1ccc(Br)s1`: -7.11% (inactive); `Cc1cccc(CCNC(=O)CCS(=O)(=O)c2ccc(Br)cc2)c1`: -50.6% (inactive). As for `O=C(CCS(=O)(=O)c1ccc(Br)cc1)Nc1ccc(Br)cc1F`, the figure is 11.4%; as for `C#CCSc1nc2sc3c(c2c(=O)n1C)CCC3`, 36.7%; as for `CCOc1ccccc1NC(=O)CCS(=O)(=O)c1ccc(Br)cc1`, 0.79%. For `O=C(CCS(=O)(=O)c1ccc(Br)cc1)NCc1cccs1`, the inhibition was 8.45%. In the case of `Cc1cc2ccccc2n1CCNC(=O)C(C)Oc1ccccc1` (stereo not drawn), the inhibition was -3.83% (inactive). As for `CC(CS(=O)(=O)c1ccc2c(c1)NC(=O)CS2)C(=O)NCc1ccccc1Cl` (stereo not drawn), the figure is 46.8%; as for `O=C(CN1CCc2ccccc21)NC(=O)NCc1ccccc1`, -42.4% (inactive); as for `COc1ccc(NC(=O)CCS(=O)(=O)c2ccc(Br)s2)cc1`, -90.5% (inactive). Next, `CC(=O)N1CCN(Cc2nc3cc(Cl)ccc3c(=O)[nH]2)CC1`: -20% (inactive); `O=C(CCS(=O)(=O)c1ccc(Br)s1)Nc1ccccc1Br`: -32.3% (inactive). For `CCOc1ccc(NC(=O)CCS(=O)(=O)c2ccc(Br)cc2)cc1`, the inhibition is -28.6% (inactive). As for `COc1ccc([N+](=O)[O-])cc1NC(=O)CCS(=O)(=O)c1ccc(Br)cc1`, the figure is 30.9%; as for `COc1ccc(Cl)cc1NC(=O)CCS(=O)(=O)c1ccc(Br)cc1`, 11%.
